Laboratory results taken from ChEMBL document CHEMBL4251652, “Chameleon-like behavior of indolylpiperidines in complex with cholinesterases targets: Potent butyrylcholinesterase inhibitors” (Eur J Med Chem, 2018).
Active and inactive are the calls of the source. No cut-off for these calls is given here.

Key:
in vitro [1] = settings: PAMPA
Description: Permeability of the compound after 2.5 hrs by PAMPA

Acetylcholinesterase [2] = molecular target: T1, Acetylcholinesterase (Homo sapiens, UniProt P22303); experiment: Inhibition of recombinant human AChE using acetylthiocholine iodide as substrate pretreated for 5 mins followed by substrate addition measured for 5 mins by Ellman's method
Cholinesterase [3] = molecular target: T2, Cholinesterase (Homo sapiens, UniProt P06276); experiment: Inhibition of recombinant human serum BuChE using butyrylthiocholine iodide as substrate pretreated for 5 mins followed by substrate addition measured for 5 mins by Ellman's method
in vitro [4] = settings: PAMPA; remark: listed apart in the source
Description: Permeability of the compound at 500 uM after 8 hrs by PAMPA

in vitro [5] = settings: PAMPA; remark: listed apart in the source
Description: Permeability of the compound by PAMPA

Rattus norvegicus [6] = experiment: In vivo inhibition of BuChE in Wistar rat administered ip measured after 60 mins by Ellman's method; type: functional, organism-based
SH-SY5Y = experiment: Cytotoxicity against human SH-SY5Y cells assessed as cell death up to […] after 24 hrs by LDH release assay; type: cell-based
Rattus norvegicus [7] = experiment: In vivo inhibition of BuChE in Wistar rat at 80 mg/kg, ip measured after 60 mins by Ellman's method relative to control; type: functional; settings: 1 h
Acetylcholinesterase [8] = molecular target: T1, Acetylcholinesterase; experiment: Competitive inhibition of recombinant human AChE at 1 to 10 uM using varying levels of acetylthiocholine iodide as substrate pretreated for 5 mins followed by substrate addition measured for 5 mins by Lineweaver-Burk plot analysis
[9] = molecular target: Cholinesterase (Equus caballus) (UniProt P81908); experiment: Binding affinity to equine serum BuChE at 20-fold excess by STD-NMR menthod
[10] = molecular target: Acetylcholinesterase (Electrophorus electricus) (UniProt O42275); experiment: Binding affinity to electric eel AChE at 20-fold excess by STD-NMR menthod
[11] = molecular target: Cholinesterase (Equus caballus) (UniProt P81908); experiment: Binding affinity to equine serum BuChE at 176 uM by trNOESY NMR method
[12] = molecular target: Acetylcholinesterase (Electrophorus electricus) (UniProt O42275); experiment: Binding affinity to electric eel AChE at 260 uM by trNOESY NMR method
Cholinesterase [13] = molecular target: T2, Cholinesterase; experiment: Mixed-type inhibition of recombinant human serum BuChE at 0.5 to 2 nM using varying levels of butyrylthiocholine iodide as substrate pretreated for 5 mins followed by substrate addition measured for 5 mins by Lineweaver-Burk plot analysis

T2 sequence (P06276 whole entry): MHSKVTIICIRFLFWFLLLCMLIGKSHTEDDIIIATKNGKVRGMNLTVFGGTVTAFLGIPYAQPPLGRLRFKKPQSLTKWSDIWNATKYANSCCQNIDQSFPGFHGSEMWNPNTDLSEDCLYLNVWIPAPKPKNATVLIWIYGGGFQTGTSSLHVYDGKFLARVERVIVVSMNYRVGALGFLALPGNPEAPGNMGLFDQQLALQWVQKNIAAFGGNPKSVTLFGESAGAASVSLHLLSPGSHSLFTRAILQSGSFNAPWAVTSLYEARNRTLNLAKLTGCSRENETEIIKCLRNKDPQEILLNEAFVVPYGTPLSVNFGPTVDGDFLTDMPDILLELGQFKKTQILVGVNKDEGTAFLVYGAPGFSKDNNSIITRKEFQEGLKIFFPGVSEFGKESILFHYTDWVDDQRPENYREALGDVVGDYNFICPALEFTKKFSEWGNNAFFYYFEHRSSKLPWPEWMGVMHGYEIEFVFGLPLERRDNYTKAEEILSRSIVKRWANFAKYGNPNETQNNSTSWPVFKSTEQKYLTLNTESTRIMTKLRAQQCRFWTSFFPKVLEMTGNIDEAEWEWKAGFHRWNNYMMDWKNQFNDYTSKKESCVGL
T1 sequence (P22303 whole entry): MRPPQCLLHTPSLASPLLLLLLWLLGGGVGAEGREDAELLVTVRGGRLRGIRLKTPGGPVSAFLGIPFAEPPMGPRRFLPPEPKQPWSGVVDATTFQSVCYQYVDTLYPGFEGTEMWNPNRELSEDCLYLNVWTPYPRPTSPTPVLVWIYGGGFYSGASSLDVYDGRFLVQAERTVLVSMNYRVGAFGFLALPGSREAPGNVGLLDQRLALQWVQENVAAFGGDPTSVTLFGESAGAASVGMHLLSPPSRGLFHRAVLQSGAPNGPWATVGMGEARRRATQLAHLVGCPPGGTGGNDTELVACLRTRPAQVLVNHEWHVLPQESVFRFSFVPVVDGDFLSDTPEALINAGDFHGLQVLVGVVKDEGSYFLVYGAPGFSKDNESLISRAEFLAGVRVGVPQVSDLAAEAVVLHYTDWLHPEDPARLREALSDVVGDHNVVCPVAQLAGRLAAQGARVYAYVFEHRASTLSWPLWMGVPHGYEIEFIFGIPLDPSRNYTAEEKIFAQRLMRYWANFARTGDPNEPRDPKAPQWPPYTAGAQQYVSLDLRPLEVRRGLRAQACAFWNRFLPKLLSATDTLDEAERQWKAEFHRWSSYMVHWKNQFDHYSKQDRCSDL
Sequence of Cholinesterase (Equus caballus) (P81908 whole entry): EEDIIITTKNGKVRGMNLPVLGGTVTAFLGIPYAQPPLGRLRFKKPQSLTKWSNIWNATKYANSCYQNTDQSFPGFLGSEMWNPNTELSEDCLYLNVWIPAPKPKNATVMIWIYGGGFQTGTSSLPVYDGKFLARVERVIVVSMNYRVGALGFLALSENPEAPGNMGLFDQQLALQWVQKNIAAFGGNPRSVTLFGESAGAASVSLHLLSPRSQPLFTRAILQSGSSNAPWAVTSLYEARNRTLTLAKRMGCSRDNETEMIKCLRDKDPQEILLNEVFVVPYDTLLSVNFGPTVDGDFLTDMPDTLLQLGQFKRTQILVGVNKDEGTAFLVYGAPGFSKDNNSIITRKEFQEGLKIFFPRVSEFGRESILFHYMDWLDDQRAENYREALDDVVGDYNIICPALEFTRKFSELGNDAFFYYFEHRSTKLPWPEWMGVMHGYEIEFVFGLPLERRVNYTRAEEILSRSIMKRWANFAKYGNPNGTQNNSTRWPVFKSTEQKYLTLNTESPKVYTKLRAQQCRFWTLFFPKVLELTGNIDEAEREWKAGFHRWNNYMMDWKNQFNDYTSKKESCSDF
Sequence of Acetylcholinesterase (Electrophorus electricus) (O42275 24-633 limits assumed): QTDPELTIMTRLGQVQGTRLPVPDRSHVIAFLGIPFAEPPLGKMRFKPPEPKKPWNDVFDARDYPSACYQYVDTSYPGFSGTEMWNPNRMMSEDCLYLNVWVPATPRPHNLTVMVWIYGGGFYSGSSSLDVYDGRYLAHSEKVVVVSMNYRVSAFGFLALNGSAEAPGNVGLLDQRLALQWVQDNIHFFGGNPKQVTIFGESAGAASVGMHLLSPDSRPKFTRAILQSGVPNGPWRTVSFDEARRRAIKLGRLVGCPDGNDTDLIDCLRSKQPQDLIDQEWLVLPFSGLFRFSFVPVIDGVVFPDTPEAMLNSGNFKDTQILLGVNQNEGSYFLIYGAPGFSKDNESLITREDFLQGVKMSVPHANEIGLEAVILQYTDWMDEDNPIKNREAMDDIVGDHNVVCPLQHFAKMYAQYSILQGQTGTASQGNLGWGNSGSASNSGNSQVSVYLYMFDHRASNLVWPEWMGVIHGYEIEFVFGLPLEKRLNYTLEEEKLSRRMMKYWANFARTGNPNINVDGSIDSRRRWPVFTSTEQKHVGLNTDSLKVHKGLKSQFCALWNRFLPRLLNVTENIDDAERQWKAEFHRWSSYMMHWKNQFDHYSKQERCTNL

**Q.** Which Papp at 2.5 h (in vitro [1]) does the source give for `CN(C)CCCN1c2ccccc2Sc2ccccc21` [PROMAZINE] here?
**A.** Its Papp at 2.5 h is 11.8 ×10⁻⁶ cm/s.

**Q.** For `CN1C(C(=O)Nc2ccccn2)=C(O)c2ccccc2S1(=O)=O` [PIROXICAM], which Papp at 2.5 h (in vitro [1]) is on record?
**A.** Its Papp at 2.5 h is 0.1 ×10⁻⁶ cm/s.

**Q.** For `Cc1[nH]c2ccccc2c1CC(=O)NCCC1CCN(Cc2ccccc2)CC1`, which IC50 (Acetylcholinesterase [2]) is on record?
**A.** Its IC50 is 7270 nM.

**Q.** And the IC50 (Cholinesterase [3])?
**A.** The IC50 was 1.09 nM.

**Q.** And the Papp at 8 h, 500 µM (in vitro [4])?
**A.** Its Papp at 8 h, 500 µM is 0.7 ×10⁻⁶ cm/s.

**Q.** What about the Papp at 2.5 h (in vitro [1]) of the same compound?
**A.** The Papp at 2.5 h was 2.3 ×10⁻⁶ cm/s.

**Q.** For `Cn1c(=O)c2c(ncn2C)n(C)c1=O` [CAFFEINE], which Papp at 2.5 h (in vitro [1]) is on record?
**A.** The Papp at 2.5 h was 0.1 ×10⁻⁶ cm/s.

**Q.** With `Cn1cc(C(=O)NCCC2CCN(Cc3ccccc3)CC2)c2ccccc21` as the compound, how does the IC50 (Acetylcholinesterase [2]) read?
**A.** The IC50 was 6110 nM.

**Q.** What about the IC50 (Cholinesterase [3]) of the same compound?
**A.** The IC50 was 670 nM.

**Q.** What about the Papp at 8 h, 500 µM (in vitro [4]) of the same compound?
**A.** The Papp at 8 h, 500 µM was 4.6 ×10⁻⁶ cm/s.

**Q.** And the Papp at 2.5 h (in vitro [1])?
**A.** Its Papp at 2.5 h is 4.8 ×10⁻⁶ cm/s.

**Q.** Which IC50 (Acetylcholinesterase [2]) does the source give for `Cn1cc(CC(=O)NCCC2CCN(Cc3ccccc3)CC2)c2ccccc21` here?
**A.** The IC50 was 1420 nM.

**Q.** And the IC50 (Cholinesterase [3])?
**A.** The IC50 was 0.25 nM.

**Q.** What about the Papp at 8 h, 500 µM (in vitro [4]) of the same compound?
**A.** The Papp at 8 h, 500 µM was 5.5 ×10⁻⁶ cm/s.

**Q.** What about the Papp at 2.5 h (in vitro [1]) of the same compound?
**A.** The Papp at 2.5 h was 7.3 ×10⁻⁶ cm/s.

**Q.** With `NC(=O)N1c2ccccc2C=Cc2ccccc21` [CARBAMAZEPINE] as the compound, how does the Papp (in vitro [5]) read?
**A.** Its Papp is 11.3 ×10⁻⁶ cm/s.

**Q.** What about the Papp at 8 h, 500 µM (in vitro [4]) of the same compound?
**A.** Its Papp at 8 h, 500 µM is 11.2 ×10⁻⁶ cm/s.

**Q.** Which Papp (in vitro [5]) does the source give for `O=c1ccc2ccccc2o1` [COUMARIN] here?
**A.** The Papp was 22.1 ×10⁻⁶ cm/s.

**Q.** What about the Papp at 8 h, 500 µM (in vitro [4]) of the same compound?
**A.** Its Papp at 8 h, 500 µM is 19.3 ×10⁻⁶ cm/s.

**Q.** Which IC50 (Acetylcholinesterase [2]) does the source give for `O=C(Cc1c[nH]c2ccc(Br)cc12)NCCC1CCN(Cc2ccccc2)CC1` here?
**A.** Its IC50 is 1410 nM.

**Q.** And the IC50 (Cholinesterase [3])?
**A.** Its IC50 is 0.68 nM.

**Q.** What about the inhibition (Rattus norvegicus [6]) of the same compound?
**A.** The inhibition was “Dose-dependent effect”.

**Q.** What about the Activity (SH-SY5Y) of the same compound?
**A.** The Activity was “Non-Toxic”.

**Q.** What about the inhibition in vivo at 80 mg/kg (Rattus norvegicus [7]) of the same compound?
**A.** Its inhibition in vivo at 80 mg/kg is 15%.

**Q.** And the Papp at 8 h, 500 µM (in vitro [4])?
**A.** The Papp at 8 h, 500 µM was 0.5 ×10⁻⁶ cm/s.

**Q.** What about the Papp at 2.5 h (in vitro [1]) of the same compound?
**A.** The Papp at 2.5 h was 5.8 ×10⁻⁶ cm/s.

**Q.** With `O=C(CCCc1c[nH]c2ccccc12)NCCC1CCN(Cc2ccccc2)CC1` as the compound, how does the IC50 (Acetylcholinesterase [2]) read?
**A.** The IC50 was 1260 nM.

**Q.** And the IC50 (Cholinesterase [3])?
**A.** Its IC50 is 12 nM.

**Q.** And the Papp at 8 h, 500 µM (in vitro [4])?
**A.** Its Papp at 8 h, 500 µM is 0.1 ×10⁻⁶ cm/s.

**Q.** What about the Papp at 2.5 h (in vitro [1]) of the same compound?
**A.** The Papp at 2.5 h was 3.9 ×10⁻⁶ cm/s.

**Q.** For `CO/N=C(\C(=O)N[C@@H]1C(=O)N2C(C(=O)O)=C(CSc3nc(=O)c(=O)[nH]n3C)CS[C@H]12)c1csc(N)n1` [CEFTRIAXONE], which Papp at 8 h, 500 µM (in vitro [4]) is on record?
**A.** The Papp at 8 h, 500 µM was 0.1 ×10⁻⁶ cm/s.

**Q.** What does the source list for `O=C(CCc1c[nH]c2ccccc12)NCCC1CCN(Cc2ccccc2)CC1`?
**A.** IC50 (Acetylcholinesterase [2]): 5950 nM; IC50 (Cholinesterase [3]): 0.89 nM; Papp at 8 h, 500 µM (in vitro [4]): 0.7 ×10⁻⁶ cm/s; Papp at 2.5 h (in vitro [1]): 2.2 ×10⁻⁶ cm/s

**Q.** What does the source list for `O=C(Cc1c[nH]c2ccccc12)NCCC1CCN(Cc2ccccc2)CC1`?
**A.** IC50 (Acetylcholinesterase [2]): 3550 nM; inhibition (Acetylcholinesterase [8]): Active; IC50 (Cholinesterase [3]): 0.87 nM; Activity [9]: Active; Activity [10]: Active; Activity [11]: Active; Papp at 8 h, 500 µM (in vitro [4]): 0.1 ×10⁻⁶ cm/s; Activity [12]: Active; Papp at 2.5 h (in vitro [1]): 2.4 ×10⁻⁶ cm/s; inhibition (Cholinesterase [13]): Active

**Q.** With `CNCCCN1c2ccccc2CCc2ccccc21` [DESIPRAMINE] as the compound, how does the Papp at 2.5 h (in vitro [1]) read?
**A.** Its Papp at 2.5 h is 11.4 ×10⁻⁶ cm/s.

**Q.** Which Papp at 8 h, 500 µM (in vitro [4]) does the source give for `Nc1nc2c(ncn2COCCO)c(=O)[nH]1` [ACYCLOVIR] here?
**A.** The Papp at 8 h, 500 µM was 0.1 ×10⁻⁶ cm/s.
